Key:
Type in all cases: biochemical
[1] = molecular target: T1, JAK3 (Homo sapiens, UniProt P52333); assay: Z'-LYTE kinase assay JAK3
T1 construct: 5 μl of catalytic domain recombinant Kinase enzyme+Tyr peptide substrate (Invitrogen, CA); purchased Invitrogen
Procedure, shortened: (§1)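 Z′-LYTE FRET, Tyr6 peptide, recombinant catalytic domain + ATP, 1 h RT, 1% DMSO final, duplicates; protease development 1 h RT; fluorescence read.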

[2] = molecular target: T2, JAK1 (Homo sapiens, UniProt P23458); assay: Z'-LYTE kinase assay JAK1
T2 construct: 5 μl of catalytic domain recombinant Kinase enzyme+Tyr peptide substrate (Invitrogen, CA); purchased Invitrogen
Procedure, shortened: as §1

[3] = molecular target: T3, JAK2 (Homo sapiens, UniProt O60674); assay: Z'-LYTE kinase assay JAK2
T3 construct: 5 μl of catalytic domain recombinant Kinase enzyme+Tyr peptide substrate (Invitrogen, CA); purchased Invitrogen
Procedure, shortened: as §1

[4] = molecular target: T4, TYK2 (Homo sapiens, UniProt P29597); assay: Z'-LYTE kinase assay TYK2
T4 construct: 5 μl of catalytic domain recombinant Kinase enzyme+Tyr peptide substrate (Invitrogen, CA); purchased Invitrogen
T4 sequence (P29597 897-1176 limits assumed): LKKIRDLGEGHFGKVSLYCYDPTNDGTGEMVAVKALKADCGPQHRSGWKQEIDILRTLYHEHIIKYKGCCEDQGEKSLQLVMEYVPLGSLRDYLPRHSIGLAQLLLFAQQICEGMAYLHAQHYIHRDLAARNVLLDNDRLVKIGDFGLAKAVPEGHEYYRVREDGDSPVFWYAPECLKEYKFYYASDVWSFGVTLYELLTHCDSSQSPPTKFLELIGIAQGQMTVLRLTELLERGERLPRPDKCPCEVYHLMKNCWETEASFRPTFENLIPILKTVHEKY
Procedure: JAK and TYK2 tyrosine phosphorylation activity is measured using the Z′-LYTE™ Technology developed by Invitrogen Corporation (Carlsbad, Calif.). For JAK1, JAK2 and JAK3 the Z′-LYTE™ Kinase Assay Kit-Tyr6 Peptide (part number PV4122) was used. For TYK2 the Z′-LYTE™ Kinase Assay Kit-Tyr6 Peptide (part number PV3192) was used. The Z′-LYTE™ biochemical assay employs a fluorescence resonance energy transfer (FRET) coupled-enzyme format and is based on the differential sensitivity of phosphorylated and non-phosphorylated peptides to proteolitic cleavage. The assay uses a synthetic peptide substrate that is labelled with a donor fluorophore (coumarin) and an acceptor fluorophore (fluorescein) that make up a FRET pair. In the primary reaction (the Kinase Reaction), the kinase transfers the γ-phosphate of ATP to a single tyrosine residue on the substrate, while the presence of a kinase inhibitor in the primary reaction suppresses phosphorylation. In the secondary reaction (the Development Reaction), a site-specific protease (the Development Reagent) is added. The development buffer quenches the Kinase Reaction, while the protease recognizes and cleaves non-phosphorylated Z′-LYTE™ peptide substrate. Cleavage disrupts FRET between the donor and acceptor fluorophores on the non-phosphoryleted substrate, while uncleaved, phosphorylated substrate maintains FRET.
To test the ability of candidate molecules to inhibit JAK tyrosine phosphorylation activity, molecules are reconstituted in 100% DMSO and serially diluted 1:10 in polypropylene v-bottom microtiter plates. The candidate molecules are then diluted 1:25 into kinase buffer and 2.5 μl transferred into duplicate wells of a 384 well low volume black microtiter assay plate (Corning, USA). The final DMSO concentration in the assay is 1%. The kinase reaction contains 2.5 μl of a candidate molecule, 5 μl of catalytic domain recombinant Kinase enzyme+Tyr peptide substrate (Invitrogen, CA) and 2.5 μl ATP (Invitrogen, CA). The kinase reaction is allowed to procede for 1 hour at room temperature. The protease reaction is initiated by the addition of 5 μl Development Reagent (Invitrogen, CA). After 1 hour incubation at room temperature the fluorescence is measured using a FlexStation plate reader (Molecular Devices, Sunnyvale, Calif.). The reader settings used are as follows: Fluorescence mode, endpoint, top read, excitation 400 nm, emission 445 nm and 520 nm, Auto Cutoff 435 nm and 515 nm, PMT sensitivity high, 6 reads per well Inhibition of JAK kinase activity is calculated as the percent phosphorylation of substrate in the presence of inhibitor compared to the percent phosphorylation of substrate in the absence of inhibitor. IC50's were derived using Xlfit 4.3 (IDBS, UK), 4 parameter logistic model 205: Y=(A+4B-A)/(1+((C/x)AD)))).

T1 sequence (P52333 822-1111 limits assumed): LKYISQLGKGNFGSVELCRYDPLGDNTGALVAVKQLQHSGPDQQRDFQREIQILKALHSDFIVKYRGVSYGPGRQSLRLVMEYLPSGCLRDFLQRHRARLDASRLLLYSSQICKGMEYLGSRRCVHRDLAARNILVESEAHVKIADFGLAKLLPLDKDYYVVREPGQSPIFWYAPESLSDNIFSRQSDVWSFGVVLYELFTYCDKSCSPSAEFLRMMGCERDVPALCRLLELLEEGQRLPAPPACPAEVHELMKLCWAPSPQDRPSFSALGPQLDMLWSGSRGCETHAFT
T3 sequence (O60674 849-1124 limits assumed): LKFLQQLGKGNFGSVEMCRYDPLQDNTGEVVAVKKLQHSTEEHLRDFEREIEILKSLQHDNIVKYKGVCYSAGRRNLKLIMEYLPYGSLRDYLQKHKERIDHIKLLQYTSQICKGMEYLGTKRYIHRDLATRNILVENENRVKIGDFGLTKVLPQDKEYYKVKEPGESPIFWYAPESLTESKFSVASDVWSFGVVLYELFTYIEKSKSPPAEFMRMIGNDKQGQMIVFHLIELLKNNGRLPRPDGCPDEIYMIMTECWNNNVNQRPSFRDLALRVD
T2 sequence (P23458 875-1153 limits assumed): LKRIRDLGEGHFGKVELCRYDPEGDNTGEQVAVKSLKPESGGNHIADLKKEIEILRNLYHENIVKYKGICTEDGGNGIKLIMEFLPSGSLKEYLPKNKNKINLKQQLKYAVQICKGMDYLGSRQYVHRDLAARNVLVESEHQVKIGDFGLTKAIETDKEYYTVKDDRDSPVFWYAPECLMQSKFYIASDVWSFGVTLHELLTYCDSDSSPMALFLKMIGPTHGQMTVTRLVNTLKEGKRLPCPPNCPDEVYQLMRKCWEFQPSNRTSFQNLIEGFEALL

| Structure (SMILES) | IC50 [1] [nM] | IC50 [2] [nM] | IC50 [3] [nM] | IC50 [4] [nM] |
| --- | --- | --- | --- | --- |
| CCC(=O)N1CCC(c2ccc(Nc3cc(NCc4cc(F)cc(F)c4)c(C(N)=O)cn3)cc2)CC1 [Example 195, 4-(3,5-difluorobenzylamino)-6-(4-(1-propionylpiperidin-4-yl)phenylamino)nicotinamide] | 1 to 10 | > 1000 | 10 to 100 | > 1000 |
| CC(=O)N1CCN(c2ccc(Nc3cc(NC4Cc5ccccc5C4)c(C(N)=O)cn3)cc2)CC1 [Example 253, 6-(4-(4-acetylpiperazin-1-yl)phenylamino)-4-(2,3-dihydro-1H-inden-2-ylamino)nicotinamide] | 100 to 1000 | > 1000 | 100 to 1000 | 100 to 1000 |
| CCC(=O)N1CCC(c2ccc(Nc3cc(NCc4cc(F)ccc4F)c(C(N)=O)cn3)cc2)CC1 [Example 149, 4-(2,5-difluorobenzylamino)-6-(4-(1-propionylpiperidin-4-yl)phenylamino)nicotinamide] | 1 to 10 | 100 to 1000 | 10 to 100 | 100 to 1000 |
| CC(=O)N1CCN(c2ccc(Nc3cc(NCc4ccc(F)cc4)c(C(N)=O)cn3)cc2)CC1 [Example 252, 6-(4-(4-acetylpiperazin-1-yl)phenylamino)-4-(4-fluorobenzylamino)nicotinamide] | 10 to 100 | > 1000 | 100 to 1000 | > 1000 |
| CN(C)C(=O)COc1ccc(Nc2cc(NC3(c4ccccc4)CC3)c(C(N)=O)cn2)cc1 [Example 366, 6-(4-(2-(dimethylamino)-2-oxoethoxy)phenylamino)-4-(1-phenylcyclopropylamino)nicotinamide] | 10 to 100 | > 1000 | 100 to 1000 | > 1000 |
| CC(=O)N1CCN(c2ccc(Nc3cc(NC4CCCC4)c(C(N)=O)cn3)cc2)CC1 [Example 239, 6-(4-(4-acetylpiperazin-1-yl)phenylamino)-4-(cyclopentylamino)nicotinamide] | 10 to 100 | 100 to 1000 | 100 to 1000 | 10 to 100 |
| Cc1cc(Nc2cc(NCc3ccccc3)c(C(N)=O)cn2)ccc1C(=O)NCCO [Example 449, 4-(benzylamino)-6-(4-(2-hydroxyethylcarbamoyl)-3-methylphenylamino)nicotinamide] | 1 to 10 | 100 to 1000 | 100 to 1000 | 100 to 1000 |
| CCC(=O)N1CCC(c2ccc(Nc3cc(NCc4cccnc4)c(C(N)=O)cn3)cc2)CC1 [Example 187, 6-(4-(1-propionylpiperidin-4-yl)phenylamino)-4-(pyridin-3-ylmethylamino)nicotinamide] | 10 to 100 | 100 to 1000 | 100 to 1000 | 100 to 1000 |
| C[C@@H](Nc1nc(Nc2ccc(OCCN3CCCC3)cc2)c(F)cc1C(N)=O)c1ccccc1 [Example 27, (R)-5-fluoro-2-(1-phenylethylamino)-6-(4-(2-(pyrrolidin-1-yl)ethoxy)phenylamino)nicotinamide] | > 1000 | > 1000 | > 1000 | > 1000 |
| CC(=O)Nc1cccc(Nc2cc(NCc3cccs3)c(C(N)=O)cn2)c1 [Example 222, 6-(3-acetamidophenylamino)-4-(thiophen-2-ylmethylamino)nicotinamide] | 1 to 10 | 100 to 1000 | 100 to 1000 | 10 to 100 |
| CC(=O)N1CCN(c2ccc(Nc3cc(NC4(c5ccccc5F)CC4)c(C(N)=O)cn3)cc2)CC1 [Example 130, 6-(4-(4-acetylpiperazin-1-yl)phenylamino)-4-(1-(2-fluorophenyl)cyclopropylamino)nicotinamide] | 1 to 10 | 100 to 1000 | 10 to 100 | 100 to 1000 |
| CN(C)C(=O)c1ccc(Nc2cc(NCc3ccccc3)c(C(N)=O)cn2)cc1Cl [Example 437, 4-(benzylamino)-6-(3-chloro-4-(dimethylcarbamoyl)phenylamino)nicotinamide] | 1 to 10 | > 1000 | 100 to 1000 | 100 to 1000 |
| CC(=O)N1CCC[C@H](CNc2cc(Nc3ccc(C(=O)N4CCCC4)cc3)ncc2C(N)=O)C1 [Example 265, (R)-4-((1-acetylpiperidin-3-yl)methylamino)-6-(4-(pyrrolidine-1-carbonyl)phenylamino)nicotinamide] | 10 to 100 | > 1000 | 100 to 1000 | 100 to 1000 |
| COc1ccc(Nc2cc(Nc3ccc(N4CCOCC4)cc3)c(C(N)=O)cn2)cc1 [Example 17, 6-(4-methoxyphenylamino)-4-(4-morpholinophenylamino)nicotinamide] | 100 to 1000 | > 1000 | > 1000 | > 1000 |
| CCC(=O)N1CCC(c2ccc(Nc3cc(NCC4(O)CCCC4)c(C(N)=O)cn3)cc2)CC1 [Example 193, 4-((1-hydroxycyclopentyl)methylamino)-6-(4-(1-propionylpiperidin-4-yl)phenylamino)nicotinamide] | 10 to 100 | > 1000 | 100 to 1000 | 100 to 1000 |
| COCCN(C)C(=O)c1ccc(Nc2cc(NCc3ccccc3)c(C(N)=O)cn2)cc1C [Example 453, 4-(benzylamino)-6-(4-((2-methoxyethyl)(methyl)carbamoyl)-3-methylphenylamino)nicotinamide] | 1 to 10 | 100 to 1000 | 10 to 100 | 100 to 1000 |
| CC(=O)N1CCN(c2ccc(Nc3cc(NCC(C)C)c(C(N)=O)cn3)cc2)CC1 [Example 235, 6-(4-(4-acetylpiperazin-1-yl)phenylamino)-4-(isobutylamino)nicotinamide] | 10 to 100 | 100 to 1000 | 100 to 1000 | 10 to 100 |
| CCC(=O)N1CCC(c2ccc(Nc3cc(NCc4cccc(F)c4F)c(C(N)=O)cn3)cc2)CC1 [Example 196, 4-(2,3-difluorobenzylamino)-6-(4-(1-propionylpiperidin-4-yl)phenylamino)nicotinamide] | 1 to 10 | 100 to 1000 | 10 to 100 | 100 to 1000 |
| CC(=O)N1CCN(c2ccc(Nc3cc(NC4(c5ccccc5)CC4)c(C(N)=O)cn3)cc2)CC1 [Example 126, 6-(4-(4-acetylpiperazin-1-yl)phenylamino)-4-(1-phenylcyclopropylamino)nicotinamide] | 1 to 10 | > 1000 | 100 to 1000 | > 1000 |
| CC(=O)N1CCN(c2ccc(Nc3cc(NCCc4ccccc4)c(C(N)=O)cn3)cc2)CC1 [Example 29] | 10 to 100 | > 1000 | 100 to 1000 | 100 to 1000 |
| N#CCOc1ccc(Nc2cc(NCc3ccccc3)c(C(N)=O)cn2)cc1 [Example 384] | 1 to 10 | 100 to 1000 | 100 to 1000 | > 1000 |
| Cc1cc(Nc2cc(NCc3ccccc3)c(C(N)=O)cn2)ccc1C(=O)N(C)CCO [Example 452] | 1 to 10 | 100 to 1000 | 10 to 100 | 100 to 1000 |
| NC(=O)c1cc(F)c(Nc2cccc(-n3nccn3)c2)nc1NC1CCCC1 [Example 22, 6-(3-(2H-1,2,3-triazol-2-yl)phenylamino)-2-(cyclopentylamino)-5-fluoronicotinamide] | 100 to 1000 | > 1000 | > 1000 | > 1000 |
| CC(C)(C)OC(=O)N1CCC(c2ccc(Nc3cc(NCc4cccc(F)c4)c(C(N)=O)cn3)cc2)CC1 [Example 77, tert-butyl 4-(4-(5-carbamoyl-4-(3-fluorobenzylamino)pyridin-2-ylamino)phenyl)piperidine-1-carboxylate] | 100 to 1000 | > 1000 | > 1000 | > 1000 |

— patent publication US20150353495A1 (PORTOLA PHARMACEUTICALS, INC., priority 2010, published 2015)
